Assay results from patent US20250257060A1, “OXADIAZOLE COMPOUND, PHARMACEUTICAL COMPOSITION COMPRISING SAME, AND USE THEREOF” (SUZHOU GENHOUSE BIO CO., LTD., priority 2022, published 2025).
Where two headings read alike, the source gives them in different places.

Legend:
[1] = tested on: acetylation level of α-tubulin in HCT116 cells; test: Assay on acetylation level of α-tubulin, HCT116 cells; format: cell-based; details: Homo sapiens, HCT-116, 6 h
Protocol: A375/HCT116/HCC827 cells at a logarithmic growth phase were taken, digested with a […] (trypsin), centrifuged, counted, and plated in a 96-well plate at an appropriate cell density (30,000 cells/well) at 100 µL/well, and an appropriate amount of PBS was added around the plate for water sealing. The next day, the cells were treated with the compounds at different concentrations (starting at 100 μM, 5-fold dilution, 9 concentration gradients). After 6 h, the medium was pipetted out and the cells were washed twice with 100 μL of PBST. The cells were then immobilized in 4% paraformaldehyde, and the plate was incubated at room temperature for 20 min. The stationary liquid was discarded and the cells were washed with PBST. 150 μL of special blocking buffer (containing 1% Triton-100) was added to each well for blocking at room temperature for 2 h, and the plate was washed with PBS to remove excess blocking buffer. α-tubulin (DM1A) mouse mAb and acetyl-α-tubulin (Lys40) (D20G3) XP rabbit mAb were diluted at a 1:2000 ratio with a blocking buffer containing 0.033% Triton-100. The dilutions were added to the 96-well plate and the plate was incubated overnight at 4° C. Meanwhile, a blank control group was set. The next day, the plate was washed twice with PBST. Secondary anti-mouse IgG (H+L) (DyLight™ 680 conjugate) and anti-rabbit IgG (H+L) (DyLight™ 800 conjugate) were diluted at a 1:2000 ratio with a blocking buffer containing 0.033% Triton-100. The dilutions were added to a 96-well plate and the plate was incubated at room temperature for 2 h. The plate was washed twice with PBST and once with PBS. Fluorescence signals at 700 nm and 800 nm were detected with a Li-COR Odyssey two-color near-infrared laser imager.

[2] = Pharmacokinetic test in mice (IV and PO); format: in vivo, BALB/c mice; details: for Cmax / AUC(0-inf) / AUC(0-t) / MRT inf / Vd / Tmax: BALB/c, mouse, plasma; for MRT inf: read-out: MRT(0-∞); for Vd: read-out: Vz
Protocol: In this example, the pharmacokinetic behavior of the compounds after intravenous injection (IV) and intragastric (PO) administration in BALB/c mice was tested.
On the day of administration, mice were weighed for actual body weight and the administration volume was calculated. Each compound was tested in two groups with 3 mice in each group, one group administered by single intravenous injection and the other group of mice by single intragastric administration. Whole blood samples were collected via the orbit at prescribed time points (0.25 h, 0.5 h, 1 h, 2 h, 4 h, 8 h, and 24 h after administration). After blood sample collection, the samples were immediately transferred to labeled commercial sample tubes containing K2-EDTA (0.85-1.15 mg), followed by centrifugation (3200×g, 4° C., 10 min) and plasma collection. The plasma was transferred to a pre-cooled centrifuge tube, frozen in dry ice, and stored in an ultra-low temperature freezer at −60° C. or lower until the LC-MS/MS analysis.
Plasma concentrations were determined by a LC-MS/MS method. Plasma drug concentration data for compounds 1 and 2 were processed in a non-compartmental model using WinNonlin Version 6.3 (Pharsight, Mountain View, CA) pharmacokinetic software. The relevant pharmacokinetic parameters were calculated by a linear logarithmic trapezoid method.

[3] = Phase I metabolic stability in mouse liver microsomes (MLMs); format: in vitro ADME, CD-1 mice; details: MLM
Protocol: (§1) Phase I metabolic stability of the test compounds in liver microsomes of CD-1 mice (MLMs), Sprague-Dawley rats (RLMs), beagle dogs (DLMs), cynomolgus monkeys (CLMs), and humans (HLMs) was evaluated.
(§2) The animal and human liver microsomes used in the test system were purchased from Xenotech, Corning, or other qualified suppliers and stored in a freezer at a temperature below −60° C. prior to use.
(§3) The test samples and control compounds were separately incubated with animal and human liver microsomes at 37±1° C. for a period of incubation time up to 60 min. The samples were removed at the indicated time points, and the reaction was stopped with acetonitrile or other organic solvents containing an internal standard. After centrifugation, the resulting supernatants were assayed by liquid chromatography-tandem mass spectrometry (LC-MS/MS).
(§4) 73.21 g of dipotassium hydrogenphosphate trihydrate and 10.78 g of potassium dihydrogenphosphate were dissolved in 4000 mL of ultrapure water. The solution was adjusted to pH 7.40±0.10 with 10% phosphoric acid or 1 M potassium hydroxide to make a final concentration of 100 mM.
(§5) The test sample powder was prepared into a stock solution at a certain concentration with DMSO or other organic solvents, which was then further diluted with a proper organic solvent.
(§6) Microsomes of each species were diluted into a 2× working solution with a 100 mM potassium phosphate buffer. The final concentration of the microsomes in the reaction system was 0.5 mg/mL.
(§7) An appropriate amount of nicotinamide adenine dinucleotide phosphate (NADP) and isocitric acid (ISO) powder was weighed out, dissolved in a magnesium chloride solution, and shaken and mixed well. An appropriate amount of isocitrate dehydrogenase (IDH) was added, and the mixture was mixed well by gently turning upside down. The final concentrations in the reaction system were: 1 mM NADP, 1 mM magnesium chloride, 6 mM ISO, and 1 unit/mL IDH.
(§8) Incubation was performed in a 96-well plate. Eight incubation plates were prepared and designated T0, T5, T15, T30, T45, T60, Blank60, and NCF60, respectively. The first 6 plates corresponded to reaction time points of 0, 5, 15, 30, 45, and 60 min, respectively. No test sample or control compound was added to the Blank60 plate, and samples were taken after 60 min of incubation. In the NCF60 plate, incubation was performed for 60 min using the potassium phosphate buffer instead of the NADPH regeneration system solution. Three replicates were made for samples in all conditions.
(§9) The microsomes and the test sample or control compound were mixed, and then the incubation plates Blank60, T5, T15, T30, T45, and T60 except for TO and NCF60 were placed in a 37° C. water bath for pre-incubation for about 10 min. In the incubation plate TO, a stop solution was first added, followed by addition of the NADPH regeneration system working solution, and 98 μL of the potassium phosphate buffer was added to each sample well of the incubation plate NCF60 to initiate the reaction. After the pre-incubations of the incubation plates Blank60, T5, T15, T30, T45, and T60 were completed, 98 μL of the NADPH regeneration system working solution was added to each sample well to initiate the reaction. The reaction temperature was 37±1° C., the final volume of the reaction was 200 μL, and the reaction system included 0.5 mg/mL microsomes, […], 1 mM NADP, 6 mM ISO, and 1 unit/mL IDH.
(§10) At 5 min, 15 min, 30 min, 45 min, and 60 min, a cold stop solution containing an internal standard was added to the reaction plate to stop the reaction.
(§11) All the reaction plates after the reaction was stopped were shaken well and centrifuged at 3220×g at 4° C. for 20 min. After the supernatant was diluted according to a certain proportion, LC-MS/MS analysis was performed.
(§12) Sample analysis was performed by the liquid chromatography-tandem mass spectrometry (LC-MS/MS) method without standard curves and quality control samples. […]

[4] = Phase I metabolic stability in rat liver microsomes (RLMs); format: in vitro ADME, Sprague-Dawley rats; details: RLM
Protocol: as §1, §2, §3, §4, §5, §6, §7, §8, §9, §10, §11, §12

[5] = Phase I metabolic stability in human liver microsomes (HLMs); format: in vitro ADME, humans; details: HLM
Protocol: as §1, §2, §3, §4, §5, §6, §7, §8, §9, §10, §11, §12

[6] = Brain-to-blood drug concentration ratio of mice; format: in vivo; details: mouse, 5 mg/kg PO
Protocol: On the day of administration, mice were weighed for actual body weight and the administration volume was calculated. In each group of 9 mice, the compound was administered by single intravenous (IV) injection or intragastric (PO) administration. Whole blood samples were collected via the orbit at prescribed time points. After blood sample collection, the samples were immediately transferred to labeled commercial sample tubes containing K2-EDTA (0.85-1.15 mg), followed by centrifugation (3200×g, 4° C., 10 min) and plasma collection. The plasma was transferred to a pre-cooled centrifuge tube, frozen in dry ice, and stored in an ultra-low temperature freezer at −60° C. or lower until the LC-MS/MS analysis. 20 μL of a plasma sample or brain tissue homogenate was taken and 80 μL of an internal standard solution (50 ng/mL solution of propafenone in acetonitrile) was added. The plate was sealed with a film sealer at 165° C., shaken on a micro oscillator (maximum vibration speed) for 10 min, and centrifuged at 4000 rpm for 20 min using a low-speed benchtop centrifuge, 10 μL of supernatant was transferred and 90 μL of acetonitrile was added. The mixture was vortexed and mixed well, and then the plate was sealed with the film sealer at 165° C. After the mixture was vortexed and mixed well, 1 μL of supernatant was taken for LC-MS/MS analysis. Plasma drug concentration data for the compounds were processed in a non-compartmental model using WinNonlin Version 6.3 (Pharsight, Mountain View, CA) pharmacokinetic software. The relevant pharmacokinetic parameters were calculated by a linear logarithmic trapezoid method.
Data processing: brain-to-blood drug concentration ratio of mice at the same time point=drug concentration in brain tissue/drug concentration in plasma

[7] = CD-1, mouse, liver microsomes, pH 7.4
[8] = buffer instead of NADPH regeneration system, 60 min
[9] = Sprague-Dawley, rat, liver microsomes, pH 7.4
[10] = human, liver microsomes, pH 7.4

For O=C(N[C@@H]1CCOC[C@H]1N1Cc2ccc(-c3nnc(C(F)F)o3)cc2S1(=O)=O)C1(C(F)(F)F)CC1 [Compound 65], the EC50 [1] was 467 nM.
For O=S1(=O)c2cc(-c3nnc(C(F)F)o3)ccc2CN1C(c1ccccn1)[C@H](O)c1ccccn1 (stereo partly drawn) [Compound 83], the Cmax ([2]; po, 10 mg/kg, read-out: C0/Cmax) was 12 µM, the AUC(0-inf) ([2]; mice, IV 2 mg/kg) was 8.78 µM·h and the AUC(0-t) ([2]; mice, IV 2 mg/kg) was 8.61 µM·h. It also gave a Cmax ([2]; mice, IV 2 mg/kg (C0)) of 5.27 µM, an MRT inf ([2]; mice, IV 2 mg/kg) of 2.06 h and a Vd ([2]; mice, IV 2 mg/kg) of 1.01 L/kg. For the same molecule, the AUC(0-inf) ([2]; mice, PO 10 mg/kg) was 63.7 µM·h, the AUC(0-t) ([2]; mice, PO 10 mg/kg) was 50.5 µM·h and the Tmax ([2]; mice, PO 10 mg/kg) was 0.5 h. The MRT inf ([2]; mice, PO 10 mg/kg) was 4.57 h, the CLz ([2]; mice, IV 2 mg/kg) was 7.82 mL/min/kg and the t½z ([2]; mice, IV 2 mg/kg) was 1.493 h. It also gave an F ([2]; mice, PO 10 mg/kg) of 117.4%, a t½z ([2]; mice, PO 10 mg/kg) of 3.323 h and a CLint scaled at 1 µM [3, 7] of 41.4 mL/min/kg. For the same molecule, the half-life at 1 M [3, 7] was 2.2 h, the “Remaining rate (NCF = 60 min)” value [3, 8] was 84.39% and the “Remaining rate (T = 60 min)” value ([3]; with NADPH, 60 min) was 72.27%. The “Remaining rate (NCF = 60 min)” value [4, 8] was 88.49%, the “Remaining rate (T = 60 min)” value ([4]; with NADPH, 60 min) was 36.99% and the CLint scaled at 1 µM [4, 9] was 58.6 mL/min/kg. The half-life at 1 M [4, 9] was 0.706 h, the “Remaining rate (NCF = 60 min)” value [5, 8] was 84.68% and the “Remaining rate (T = 60 min)” value ([5]; with NADPH, 60 min) was 82.70%. For the same molecule, the CLint scaled at 1 µM [5, 10] was 6.43 mL/min/kg and the half-life at 1 M [5, 10] was 4.51 h.
Molecule O=C(N[C@@H]1CCOC[C@H]1N1Cc2ccc(-c3nnc(C(F)F)o3)cc2S1(=O)=O)C(F)F [Compound 14] has a Cmax ([2]; po, 5 mg/kg, read-out: C0/Cmax) of 7.27 µM, an AUC(0-inf) ([2]; mice, IV 1 mg/kg) of 4.27 µM·h and an AUC(0-t) ([2]; mice, IV 1 mg/kg) of 4.22 µM·h. The Cmax ([2]; mice, IV 1 mg/kg (C0)) was 3.15 µM, the MRT inf ([2]; mice, IV 1 mg/kg) was 1.5 h and the Vd ([2]; mice, IV 1 mg/kg) was 0.928 L/kg. The AUC(0-inf) ([2]; mice, PO 5 mg/kg) was 15.2 µM·h, the AUC(0-t) ([2]; mice, PO 5 mg/kg) was 14.8 µM·h and the Tmax ([2]; mice, PO 5 mg/kg) was 0.5 h. The MRT inf ([2]; mice, PO 5 mg/kg) was 1.88 h, the CLz ([2]; mice, IV 1 mg/kg) was 8.4 mL/min/kg and the t½z ([2]; mice, IV 1 mg/kg) was 1.277 h. For the same molecule, the F ([2]; mice, PO 5 mg/kg) was 71.27%, the t½z ([2]; mice, PO 5 mg/kg) was 1.48 h and the EC50 [1] was 124 nM. For the same molecule, the concentration at 1 h ([6]; brain, 1 h, read-out: Brain drug concentration) was 85.6 ng/mL, the concentration at 2 h ([6]; brain, 2 h, read-out: Brain drug concentration) was 42.8 ng/mL and the Kp at 1 h ([6]; brain/plasma, 1 h) was 0.03. For the same molecule, the Kp at 2 h ([6]; brain/plasma, 2 h) was 0.03, the concentration at 1 h ([6]; plasma, 1 h, read-out: Blood drug concentration) was 2450 ng/mL and the concentration at 2 h ([6]; plasma, 2 h, read-out: Blood drug concentration) was 1380 ng/mL.
